The data set deals with CCRIS mutagenicity, Ames/micronucleus/aberration tests. The experiment in a line: CCRIS mutagenicity studies.
The mark [1] stands for this setting: Test System: AMES SALMONELLA TYPHIMURIUM, Strain/Indicator: TA98, Metabolic Activation: NONE, Method: PREINCUBATION
Where [2] appears, read: Test System: AMES SALMONELLA TYPHIMURIUM, Strain/Indicator: TA100, Metabolic Activation: NONE, Method: PREINCUBATION
The mark [3] stands for this setting: Test System: AMES SALMONELLA TYPHIMURIUM, Strain/Indicator: TA1535, Metabolic Activation: NONE, Method: PREINCUBATION
Where [4] appears, read: Test System: AMES SALMONELLA TYPHIMURIUM, Strain/Indicator: TA1537, Metabolic Activation: NONE, Method: PREINCUBATION

The structures appear in SMILES notation. Active and inactive are the calls of the source. The rule behind the calls is not given here.

Turning to `COc1cc2c(cc1OC)[C@@]13CCN4CC5=CCO[C@H]6CC(=O)N2[C@H]1[C@H]6[C@H]5C[C@H]43`, the mutagenic call by setting is: (Test System: AMES SALMONELLA TYPHIMURIUM, Strain/Indicator: TA98, Metabolic Activation: HAMSTER, LIVER, S-9, AROCLOR 1254 (10%), Method: PREINCUBATION) “inactive; negative”; under setting [1], “inactive; negative”; (Test System: AMES SALMONELLA TYPHIMURIUM, Strain/Indicator: TA98, Metabolic Activation: RAT, LIVER, S-9, AROCLOR 1254 (10%), Method: PREINCUBATION) “inactive; negative”; (Test System: AMES SALMONELLA TYPHIMURIUM, Strain/Indicator: TA100, Metabolic Activation: HAMSTER, LIVER, S-9, AROCLOR 1254 (10%), Method: PREINCUBATION) “inactive; negative”; under setting [2], “inactive; negative”; (Test System: AMES SALMONELLA TYPHIMURIUM, Strain/Indicator: TA100, Metabolic Activation: RAT, LIVER, S-9, AROCLOR 1254 (10%), Method: PREINCUBATION) “inactive; negative”. The mutagenic call is “inactive; negative” (Test System: AMES SALMONELLA TYPHIMURIUM, Strain/Indicator: TA1535, Metabolic Activation: HAMSTER, LIVER, S-9, AROCLOR 1254 (10%), Method: PREINCUBATION); “inactive; negative” under setting [3]; “inactive; negative” (Test System: AMES SALMONELLA TYPHIMURIUM, Strain/Indicator: TA1535, Metabolic Activation: RAT, LIVER, S-9, AROCLOR 1254 (10%), Method: PREINCUBATION); “inactive; negative” (Test System: AMES SALMONELLA TYPHIMURIUM, Strain/Indicator: TA1537, Metabolic Activation: HAMSTER, LIVER, S-9, AROCLOR 1254 (10%), Method: PREINCUBATION); “inactive; negative” under setting [4]; “inactive; negative” (Test System: AMES SALMONELLA TYPHIMURIUM, Strain/Indicator: TA1537, Metabolic Activation: RAT, LIVER, S-9, AROCLOR 1254 (10%), Method: PREINCUBATION).
With `CC(=O)CC(=O)Nc1ccc(C)cc1`, the mutagenic call by setting is: under setting [1], “inactive; negative”; (Test System: AMES SALMONELLA TYPHIMURIUM, Strain/Indicator: TA98, Metabolic Activation: RAT, LIVER, S-9, PHENOBARBITAL AND BETA-NAPHTHOFLAVONE, Method: PREINCUBATION) “inactive; negative”; under setting [2], “inactive; negative”; (Test System: AMES SALMONELLA TYPHIMURIUM, Strain/Indicator: TA100, Metabolic Activation: RAT, LIVER, S-9, PHENOBARBITAL AND BETA-NAPHTHOFLAVONE, Method: PREINCUBATION) “inactive; negative”; (Test System: AMES SALMONELLA TYPHIMURIUM, Strain/Indicator: TA102, Metabolic Activation: NONE, Method: PREINCUBATION) “inactive; negative”; (Test System: AMES SALMONELLA TYPHIMURIUM, Strain/Indicator: TA102, Metabolic Activation: NONE, Method: STANDARD PLATE) “inactive; negative”. The mutagenic call runs as follows: (Test System: AMES SALMONELLA TYPHIMURIUM, Strain/Indicator: TA102, Metabolic Activation: RAT, LIVER, S-9, PHENOBARBITAL AND BETA-NAPHTHOFLAVONE, Method: PREINCUBATION) “inactive; negative”; (Test System: AMES SALMONELLA TYPHIMURIUM, Strain/Indicator: TA104, Metabolic Activation: NONE, Method: PREINCUBATION) “inactive; negative”; (Test System: AMES SALMONELLA TYPHIMURIUM, Strain/Indicator: TA104, Metabolic Activation: RAT, LIVER, S-9, PHENOBARBITAL AND BETA-NAPHTHOFLAVONE, Method: PREINCUBATION) “inactive; negative”; under setting [3], “inactive; negative”; (Test System: AMES SALMONELLA TYPHIMURIUM, Strain/Indicator: TA1535, Metabolic Activation: RAT, LIVER, S-9, PHENOBARBITAL AND BETA-NAPHTHOFLAVONE, Method: PREINCUBATION) “inactive; negative”; under setting [4], “inactive; negative”. For the same molecule, the mutagenic call is “inactive; negative” (Test System: AMES SALMONELLA TYPHIMURIUM, Strain/Indicator: TA1537, Metabolic Activation: RAT, LIVER, S-9, PHENOBARBITAL AND BETA-NAPHTHOFLAVONE, Method: PREINCUBATION); “inactive; negative” (Test System: AMES SALMONELLA TYPHIMURIUM, Strain/Indicator: TA2638, Metabolic Activation: NONE, Method: STANDARD PLATE); “inactive; negative” (Test System: E. COLI, Strain/Indicator: WP2 (PKM101), Metabolic Activation: NONE, Method: STANDARD PLATE); “inactive; negative” (Test System: E. COLI, Strain/Indicator: WP2 UVRA (PKM101), Metabolic Activation: NONE, Method: STANDARD PLATE); “active; positive” (Test System: E. COLI, Strain/Indicator: WP2UVRA/PKM101, Metabolic Activation: NONE, Method: PREINCUBATION); “inactive; negative” (Test System: E. COLI, Strain/Indicator: WP2UVRA, Metabolic Activation: NONE, Method: PREINCUBATION). Further, the mutagenic call (Test System: E. COLI, Strain/Indicator: WP2UVRA, Metabolic Activation: RAT, LIVER, S-9, PHENOBARBITAL AND BETA-NAPHTHOFLAVONE, Method: PREINCUBATION) is “inactive; negative”.
`Nc1ncnc2c1ncn2[C@@H]1O[C@H](CO)[C@@H](O)[C@@H]1O`: the mutagenic call (Test System: CHINESE HAMSTER OVARY, Strain/Indicator: CHO/6-THIOGUANINE, Metabolic Activation: NONE) is “active; positive”.

The values above are taken from PubChem BioAssay AID1259407 (Chemical Carcinogenesis Research Information System (CCRIS), 2018).
